In patent US4353904A, “Phenylpiperazine derivatives of 1,3,4-oxadiazolylphenols, and therapeutic agents containing these compounds” (BASF Aktiengesellschaft, priority 1980, dated 1982):

How the values were obtained:
[1] = Acute toxicity, intraperitoneal administration; conditions: in vivo, ip, mouse, groups of 10 female NMRI mice, read-out: Toxicity LD 50
Method: In addition to the hypotensive action, the acute toxicity (LD 50, mg/kg), for intraperitoneal administration, was determined for groups of 10 female NMRI mice, weighing 22-27 g.
^(3) Mouse. Intraperitoneal

[2] = Therapeutic range / therapeutic index (quotient of LD 50 and ED 20%); conditions: in vivo; quotient of LD 50 (mouse i.p.) and ED 20% (rat i.v.)
From the text: The therapeutic range is the quotient of the LD 50 and the ED 20%.

blood pressure = assay: Hypotensive action in rats under urethane narcosis (carotid artery blood pressure, intravenous administration); assay type: in vivo, male Sprague-Dawley rats; conditions: rat; for ED20: iv, urethane narcosis 1.78 g/kg i.p., compound i.v. into jugular vein, read-out: Hypotensive action ED 20% (dose which caused a 20% reduction in blood pressure); for Hypotensive action R.A. (relative activity, Urapidil = 1.00): urethane narcosis, i.v., relative to Urapidil = 1.00
Method: Male Sprague-Dawley rats weighing 220-280 g were used, under urethane narcosis (1.78 g/kg, administered intraperitoneally) for the investigation. The blood pressure was measured directly in the carotid artery. The compound was administered intravenously into the jugular vein. The dose (mg/kg) which caused a 20% reduction in blood pressure was determined as the ED 20%. | ^(1) Rat. Urethane narcosis. Intravenous administration. | ^(2) Relative activity.

COc1ccccc1N1CCN(CC(O)COc2cccc(-c3nnco3)c2)CC1 (stereo not shown) [Example 7, 1-[3-(1,3,4-Oxadiazol-2-yl)-phenoxy]-3-[4-(2-methoxyphenyl)piperazin-1-yl]-propan-2-ol]
LD50 [1]: 215 mg/kg | selectivity ratio [2]: 2850 | ED20 (blood pressure): 0.0754 mg/kg | Hypotensive action R.A. (relative activity, Urapidil = 1.00) (blood pressure): 2.51

CCOc1ccccc1N1CCN(CC(O)COc2cccc(-c3nnco3)c2)CC1 (stereo not shown) [Example 9, 1-[3-(1,3,4-Oxadiazol-2-yl)-phenoxy]-3-[4-(2-ethoxyphenyl)-piperazin-1-yl]-propan-2-ol]
LD50 [1]: 215 mg/kg | selectivity ratio [2]: 25600 | ED20 (blood pressure): 0.0084 mg/kg | Hypotensive action R.A. (relative activity, Urapidil = 1.00) (blood pressure): 22.50

COc1ccccc1N1CCN(CC(O)COc2cccc(-c3nnc(C)o3)c2)CC1 (stereo not shown) [Example 10, 1-[3-(5-Methyl-1,3,4-oxadiazol-2-yl)-phenoxy]-3-[4-(2-methoxyphenyl)-piperazin-1-yl]-propan-2-ol]
LD50 [1]: 224 mg/kg | selectivity ratio [2]: 6730 | ED20 (blood pressure): 0.0333 mg/kg | Hypotensive action R.A. (relative activity, Urapidil = 1.00) (blood pressure): 5.68

CCOc1ccccc1N1CCN(CC(O)COc2cccc(-c3nnc(C)o3)c2)CC1 (stereo not shown) [Example 12, 1-[3-(5-Methyl-1,3,4-oxadiazol-2-yl)-phenoxy]-3-[4-(2-ethoxyphenyl)-piperazin-1-yl]-propan-2-ol]
LD50 [1]: 162 mg/kg | selectivity ratio [2]: 8300 | ED20 (blood pressure): 0.0195 mg/kg | Hypotensive action R.A. (relative activity, Urapidil = 1.00) (blood pressure): 9.69

COc1ccccc1N1CCN(CC(O)COc2ccccc2-c2nnc(C)o2)CC1 (stereo not shown) [Example 2]
LD50 [1]: 56.2 mg/kg | selectivity ratio [2]: 2540 | ED20 (blood pressure): 0.0221 mg/kg | Hypotensive action R.A. (relative activity, Urapidil = 1.00) (blood pressure): 8.55

COc1ccccc1N1CCN(CCCNc2cc(=O)n(C)c(=O)n2C)CC1 [Urapidil, 6-{3-[4-(2-methoxyphenyl)-piperazin-1-yl]-propylamino}-1,3-dimethyluracil, reference compound]
LD50 [1]: 362 mg/kg | selectivity ratio [2]: 1920 | ED20 (blood pressure): 0.189 mg/kg | Hypotensive action R.A. (relative activity, Urapidil = 1.00) (blood pressure): 1.00

Cc1nnc(-c2cccc(OCC(O)CN3CCN(c4ccccc4Cl)CC3)c2)o1 (stereo not shown) [Example 16, 1-[3-(5-Methyl-1,3,4-oxadiazol-2-yl)-phenoxy]-3-[4-(2-chlorophenyl)-piperazin-1-yl]-propan-2-ol]
LD50 [1]: 178 mg/kg | selectivity ratio [2]: 2490 | ED20 (blood pressure): 0.0716 mg/kg | Hypotensive action R.A. (relative activity, Urapidil = 1.00) (blood pressure): 2.64
